In US20140094414A1, “COMPOSITION FOR PREVENTING OR TREATING NEURODEGENERATIVE DISEASE INCLUDING BIOACTIVE PEPTIDE AS EFFECTIVE COMPONENT” (PUKYONG NATIONAL UNIVERSITY INDUSTRY-UNIVERSITY CO, priority 2012, published 2014):
No end group written: not given here.

Key:
[1] = test system: PC12 cells co-cultured with BV2 cells; test: Co-culture of Aβ42-activated BV2 cells and PC12 cells, MTT assay; conditions: 100 μM peptide, 48 hours, 5 uM Aβ42
Method: For the co-culture of microglia and PC12 cells, which has been employed to assess the neurotoxin effect of activated microglia, microglia was first seeded onto cell culture inserts (pore size of 0.2 μm; SPL, Korea). After overnight incubation, microglia were left untreated or exposed 5 uM Aβ42 in the presence or absence of peptides for 24 h. Afterwards, the microglial cells were co-cultured with PC12 cells by transferring the culture inserts containing microglia onto PC12 cell monolayers (see FIG. 15).
In order to confirm cell viability of co-cultured PC12 cell, MTT assay was performed.

[2] = test system: BV2 cells, murine microglia; test: Cytotoxicity, MTT assay in BV2 cells; format: cell-based; conditions: for cytotoxicity in BV2 cell: 10, 50, 100 μM, 24 and 48 hours
Method: Cytoprotective effect was determined by MTT reduction assay. […] After incubations for 24 hours and 48 hours, the incubated cells were washed with PBS, 100 μl of MTT (0.5 mg/ml final concentration) was added to each wells, and incubation was continued for another 4 hours for a reduction of MTT. […] Relative cell viability was calculated as a percentage compared with the absorbance of the untreated control group.

NO = NO production, Griess reaction in Aβ42-stimulated BV2 cells; format: cell-based, murine; conditions: stimulation with Aβ42 alone (control), 1 μM 48 h
Method: NO levels in the cultured BV2 cells' supernatants were measured by the Griess reaction. In brief, BV2 cells were pre incubated overnight in 24-well plates using DMEM without phenol red at a density 2×10^5 cells/ml, followed by the treatment with the HIP-1 peptide of the present invention having various concentrations (10, 50, 100 μM) as a sample for 6 h. After 6 h, the NO production was stimulated by adding Aβ42 (1 μM final concentration) and incubated for further 48 h. Then 50 μl of culture supernatants from each samples was mixed with the same volume of the Griess reagent [1% sulfanilamide/0.1% N-1-naphthyl]-ethylenediamine dihydrochloride/2.5% phosphoric acid] following the incubation for 15 min. Absorbance values were read at 540 nm using ELISA microplate reader (Tecan GmbH, Austria). Blank was not treated, and control was activated BV2 cells by exposing Aβ42 without the HIP-1 peptide of the present invention.

[3] = test system: nerve cells-differentiated PC12 cells
Method: The present inventors induced a nerve toxin in PC12 cells by differentiating PC12 cells into nerve cells through treating with NGF, and then treating to the differentiated PC12 cells with 20 μM of Aβ42 for 24 hours.
Cytoprotective effect was determined by MTT reduction assay. […] After incubation for 24 hours, 100 μl of MTT (1 mg/ml final concentration) was added to each of wells and incubation was continued for another 4 hours. MTT is used as an indicator of cell viability through its mitochondrial reduction to formazan. Mitochondrial succinate dehydrogenase in live cells converts MTT into visible formazan crystals during incubation. The formazan crystals were then solubilized in DMSO and the absorbance was measured at 540 nm by using enzyme-linked immunosorbent assay (ELISA) microplate reader (Tecan GmbH, Austria). Relative cell viability was calculated compared with the absorbance of the untreated control group.

| Substance | cell viability of PC12 cells co-cultured with BV2 cells [1] [%] | cytotoxicity in BV2 cell [2] | production of NO (NO) [µM] | cell viability of nerve cell-differentiated PC12 cells ([3]; 10 μM Aβ42, FIG. 2) | PC12 cell viability ([3]; 20 μM Aβ42 for 24 h) | toxicity of Aβ42 in BV2 cells ([2]; Aβ42 0.1, 0.5, 1, 5, 10 μM) |
| --- | --- | --- | --- | --- | --- | --- |
| FLHDVQ [HTP-2, FLHDVQ] | 75.19±2.55 | did not exhibit cytotoxicity | – | – | – | – |
| GTEDELDK [HTP-1] | 82.49±3.05 | did not exhibit cytotoxicity | – | – | – | – |
| amyloid-beta 42 [Aβ42] | – | – | 24.59 ± 2.54 | greatly decreased | reduction | no toxicities |
